Measurements as given in patent US20230117205A1, “B7-H4 ANTIBODY-DRUG CONJUGATES FOR THE TREATMENT OF CANCER” (SEAGEN INC., priority 2021, published 2023).

Test system: MDA-MB-468 xenograft tumors
Test: Gene ontology (GO) term analysis of treated MDA-MB-468 xenograft tumors
Assay type: in vivo, NSG mice
Experimental: For RNAseq, RNA was extracted from tumors and library preparation for […] sequencing was performed using PolyA selection. RNA was sequenced using the Illumina HiSeq platform 2×150 bp configuration. RNA extraction, library preparation, and sequencing were performed by GENEWIZ. Adaptors were trimmed using cutadapt version 1.16, reads were aligned to a composite (GRCh38(h38)/GRCm38(mm10)) genome using STAR version 2.5.2. Transcripts and genes were quantitated via RSEM version 1.2.31. Quantitative and statistical differences were determined between groups of samples using DESeq2 version 1.28.1. GO term and gene set enrichment analysis was performed with clusterProfiler version 3.16.1, msigdbr version 7.1.1, AnnotationDbi version 1.50.3, org.Mm.eg.db version 3.11.4, and org.Hs.eg.db version 3.11.4. […] Only GO terms with a p-value and q-value of 0.05 or less were retained. Figures were replotted using GraphPad Prism. The raw fastq files as well as the mapped BAM files are stored on the Seagen linux storage location: /fc1/jobs/research/RNASeq/.

**Q.** “SGN-B7H4V: ADC of fully human IgG1 anti-B7-H4 mAb conjugated to monomethyl auristatin E (MMAE) via a protease-cleavable valine-citrulline linker (vedotin)” was tested. Which “human gene categories related to apoptosis/programmed cell death pathways” value (compared to B7H41001 mAb-DM1) did it give?
**A.** elevated

**Q.** What about the “mouse immune-related GO terms” value (compared to B7H41001 mAb-DM1) of the same substance?
**A.** increased

**Q.** And the “human gene categories related to the immune response” value (compared to B7H41001 mAb-DM4)?
**A.** elevated

**Q.** What about the “mouse immune-related gene categories” value (compared to B7H41001 mAb-DM4) of the same substance?
**A.** elevated
